Assay [1] relates to HCT-8. Description: Cytotoxicity against Homo sapiens (human) HCT8 cells after 72 hr by MTT assay. As to conditions: HCT-8, 72 h. It is filed as functional, cell-based.
The subject of assay [2] is HCT-8. Description: Cytotoxicity against Homo sapiens (human) HCT8 cells assessed as growth inhibition at 25 ug/ml after 72 hr by MTT assay. As to conditions: HCT-8, 72 h, read-out: GI. It is filed as functional.
Assay [3] has as its system MDA-MB-435. Description: Cytotoxicity against Homo sapiens (human) MDA-MB-435 cells assessed as growth inhibition at 25 ug/ml after 72 hr by MTT assay. The following applies: MDA-MB-435, 72 h, read-out: GI. It is filed as functional.
Assay [4] concerns SF-295. Put plainly: Cytotoxicity against Homo sapiens (human) SF295 cells assessed as growth inhibition at 25 ug/ml after 72 hr by MTT assay. It is filed as functional. As to conditions: SF-295, 72 h, read-out: GI.
For assay [5], the system named is MDA-MB-435. Description: Cytotoxicity against Homo sapiens (human) MDA-MB-435 cells after 72 hr by MTT assay. It is filed as functional, cell-based. As to conditions: MDA-MB-435, 72 h.
In assay [6] the test system is MDA-MB-435. Description: Ratio of doxorubicin IC50 to compound IC50 for Homo sapiens (human) MDA-MB-435 cells. It is filed as functional.
A further assay concerns HL-60. Put plainly: Cytotoxicity against Homo sapiens (human) HL60 cells after 72 hr by MTT assay. It is filed as functional, cell-based. The following applies: HL-60, 72 h.
In assay [7] the test system is SF-295. Put plainly: Cytotoxicity against Homo sapiens (human) SF295 cells after 72 hr by MTT assay. It is filed as functional, cell-based. As to conditions: SF-295, 72 h.

From ChEMBL document CHEMBL3044621, “1-(7-Chloroquinolin-4-yl)-2-[(1H-pyrrol-2-yl)methylene]hydrazine: a potent compound against cancer” (Med Chem Res, 2012) come the findings set out here.

Structures are written as SMILES. Converted amounts (≈) assume the structure as drawn.

Regarding `COc1cccc2c1C(=O)c1c(O)c3c(c(O)c1C2=O)C[C@@](O)(C(=O)CO)C[C@@H]3O[C@H]1C[C@H](N)[C@H](O)[C@H](C)O1` [DOXORUBICIN], the midpoint of inhibition in the assay on HCT-8 [1], the IC50, lay at 0.01 µg/mL (≈ 0.0184 µM).

Regarding `Clc1ccc2c(N/N=C/c3ccco3)ccnc2c1`, the inhibition of growth at 25 µg/mL with HCT-8 [2] amounted to 53.2%; in the assay on MDA-MB-435 [3], 68.5%; with SF-295 [4], 61.9%.

On to `Clc1ccc2c(N/N=C/c3ccc[nH]3)ccnc2c1`, for which the IC50 in the assay with MDA-MB-435 [5] was 0.117 µg/mL (≈ 0.431 µM); in the assay with HL-60, 0.0952 µg/mL (≈ 0.352 µM); in the assay with HCT-8 [1] it was 0.441 µg/mL (≈ 1.63 µM); in the assay with SF-295 [7], 0.527 µg/mL (≈ 1.95 µM). The “Ratio IC50” value with MDA-MB-435 [6] stood at 4. Moreover, the inhibition of growth at 25 µg/mL in the assay with HCT-8 [2], in the assay on MDA-MB-435 [3] and in the assay with SF-295 [4] was 100% each time.

Regarding `O=[N+]([O-])c1ccc(/C=N/Nc2ccnc3cc(Cl)ccc23)o1`, the values for the inhibition of growth at 25 µg/mL with HCT-8 [2], with MDA-MB-435 [3] and in the assay on SF-295 [4] were 24.1%, 38% and 7.53%, respectively.

On to `Clc1ccc2c(N/N=C/c3cccs3)ccnc2c1`, for which the inhibition of growth at 25 µg/mL in the assay with HCT-8 [2] was 21.1%; in the assay on MDA-MB-435 [3], 21.6%; in the assay on SF-295 [4], 1.03%.

In the case of `O=[N+]([O-])c1ccc(/C=N/Nc2ccnc3cc(Cl)ccc23)s1`, the results for the inhibition of growth at 25 µg/mL with HCT-8 [2], in the assay with MDA-MB-435 [3] and in the assay on SF-295 [4] were 49%, 42.1% and 33.4%, respectively.

Take `Clc1ccc2c(N/N=C/c3ncc[nH]3)ccnc2c1`: the inhibition of growth at 25 µg/mL with HCT-8 [2] worked out at 34%; in the assay with MDA-MB-435 [3], 82.6%; with SF-295 [4] it was 30.2%.
